Consider eight compounds from ChEMBL document CHEMBL5727139, “Pyridine derivatives” (2018).

Each structure is given as a SMILES string.

The test has as its target T1, Leucyl-cystinyl aminopeptidase (Rattus norvegicus, UniProt P97629).
T1 sequence (P97629 whole entry): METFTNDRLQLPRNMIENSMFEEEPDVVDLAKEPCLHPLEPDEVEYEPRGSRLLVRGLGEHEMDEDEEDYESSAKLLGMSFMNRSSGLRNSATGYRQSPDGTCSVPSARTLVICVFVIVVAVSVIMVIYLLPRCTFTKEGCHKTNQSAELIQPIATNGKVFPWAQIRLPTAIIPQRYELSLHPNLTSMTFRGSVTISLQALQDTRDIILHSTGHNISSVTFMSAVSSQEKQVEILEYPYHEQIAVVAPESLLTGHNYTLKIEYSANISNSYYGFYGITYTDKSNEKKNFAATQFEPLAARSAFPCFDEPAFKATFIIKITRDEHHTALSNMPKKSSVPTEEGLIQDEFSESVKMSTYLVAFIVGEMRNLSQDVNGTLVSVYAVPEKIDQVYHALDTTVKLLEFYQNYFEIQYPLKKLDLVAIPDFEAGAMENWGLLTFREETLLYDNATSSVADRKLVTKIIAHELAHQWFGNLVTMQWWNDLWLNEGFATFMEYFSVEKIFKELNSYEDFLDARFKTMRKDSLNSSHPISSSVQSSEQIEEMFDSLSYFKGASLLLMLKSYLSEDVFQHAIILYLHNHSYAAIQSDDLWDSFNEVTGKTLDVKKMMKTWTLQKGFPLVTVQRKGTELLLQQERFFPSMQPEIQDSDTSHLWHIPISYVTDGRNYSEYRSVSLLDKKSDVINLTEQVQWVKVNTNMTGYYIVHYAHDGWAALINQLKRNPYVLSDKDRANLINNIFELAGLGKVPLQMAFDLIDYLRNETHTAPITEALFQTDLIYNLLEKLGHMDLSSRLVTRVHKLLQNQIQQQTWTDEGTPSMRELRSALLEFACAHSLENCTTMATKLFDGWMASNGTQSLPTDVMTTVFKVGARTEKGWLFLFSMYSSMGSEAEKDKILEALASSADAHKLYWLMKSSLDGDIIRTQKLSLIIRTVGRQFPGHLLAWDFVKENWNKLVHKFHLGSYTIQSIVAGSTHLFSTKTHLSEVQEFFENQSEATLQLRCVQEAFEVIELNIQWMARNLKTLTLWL
Put plainly: Inhibition Assay: The inventors have assumed that inhibition of nocturnal activity of placental leucine aminopeptidase (P-LAP), i.e. aminopeptidase that cleaves AVP, would maintain and/or increase an endogenous AVP level to enhance the antidiuretic effect, which would contribute to a decreased number of nocturnal voids, and have extensively studied compounds which inhibit P-LAP.
In the case of `CSC[C@H](N)[C@](O)(Cc1cc(CCCC2CC2)c(C)cn1)C(=O)O`, the IC50 was found to be 1.7 nM. For the compound `Cc1c(CCCC2CC2)ccnc1C[C@](O)(C(=O)O)[C@@H](N)CC(C)C`, the concentration for half-maximal inhibition (IC50) came out at 370 nM. Then `CC(C)C[C@H](N)[C@](O)(Cc1nccc2c1CCC(CC1CC1)C2)C(=O)O` (stereo partly drawn), with 15 nM; and `Cc1cnc(C[C@](O)(C(=O)O)[C@@H](N)CCC2CC2)cc1CCCC1CC1`, with 0.58 nM. Then `CCCC1CC1c1ccnc(C[C@](O)(C(=O)O)[C@@H](N)CC(C)C)c1` (stereo partly drawn), with 19 nM.

In the case of `CCCCCc1ccnc(C[C@](O)(C(=O)O)[C@@H](N)CC(C)C)c1`, the IC50 stood at 11 nM.

Regarding `COc1ccccc1CCc1ccnc(C[C@](O)(C(=O)O)[C@@H](N)CC(C)C)c1`, the concentration for half-maximal inhibition (IC50) came out at 12 nM. `C=CCSC[C@H](N)[C@](O)(Cc1cc(CCCC2CC2)ccn1)C(=O)O`: the IC50 came out at 20 nM.
